As a reminder, the DC50 is the concentration giving 50% degradation.

The target of this test is T1, EGFR L858R-T790M (Homo sapiens, UniProt P00533, L858R/T790M).
T1 construct: NCI-H1975 (harboring EGFR heterozygous L858R-T790M mutations); host or cells: NCI-H1975
T1 sequence (P00533 25-1210 T790M/L858R): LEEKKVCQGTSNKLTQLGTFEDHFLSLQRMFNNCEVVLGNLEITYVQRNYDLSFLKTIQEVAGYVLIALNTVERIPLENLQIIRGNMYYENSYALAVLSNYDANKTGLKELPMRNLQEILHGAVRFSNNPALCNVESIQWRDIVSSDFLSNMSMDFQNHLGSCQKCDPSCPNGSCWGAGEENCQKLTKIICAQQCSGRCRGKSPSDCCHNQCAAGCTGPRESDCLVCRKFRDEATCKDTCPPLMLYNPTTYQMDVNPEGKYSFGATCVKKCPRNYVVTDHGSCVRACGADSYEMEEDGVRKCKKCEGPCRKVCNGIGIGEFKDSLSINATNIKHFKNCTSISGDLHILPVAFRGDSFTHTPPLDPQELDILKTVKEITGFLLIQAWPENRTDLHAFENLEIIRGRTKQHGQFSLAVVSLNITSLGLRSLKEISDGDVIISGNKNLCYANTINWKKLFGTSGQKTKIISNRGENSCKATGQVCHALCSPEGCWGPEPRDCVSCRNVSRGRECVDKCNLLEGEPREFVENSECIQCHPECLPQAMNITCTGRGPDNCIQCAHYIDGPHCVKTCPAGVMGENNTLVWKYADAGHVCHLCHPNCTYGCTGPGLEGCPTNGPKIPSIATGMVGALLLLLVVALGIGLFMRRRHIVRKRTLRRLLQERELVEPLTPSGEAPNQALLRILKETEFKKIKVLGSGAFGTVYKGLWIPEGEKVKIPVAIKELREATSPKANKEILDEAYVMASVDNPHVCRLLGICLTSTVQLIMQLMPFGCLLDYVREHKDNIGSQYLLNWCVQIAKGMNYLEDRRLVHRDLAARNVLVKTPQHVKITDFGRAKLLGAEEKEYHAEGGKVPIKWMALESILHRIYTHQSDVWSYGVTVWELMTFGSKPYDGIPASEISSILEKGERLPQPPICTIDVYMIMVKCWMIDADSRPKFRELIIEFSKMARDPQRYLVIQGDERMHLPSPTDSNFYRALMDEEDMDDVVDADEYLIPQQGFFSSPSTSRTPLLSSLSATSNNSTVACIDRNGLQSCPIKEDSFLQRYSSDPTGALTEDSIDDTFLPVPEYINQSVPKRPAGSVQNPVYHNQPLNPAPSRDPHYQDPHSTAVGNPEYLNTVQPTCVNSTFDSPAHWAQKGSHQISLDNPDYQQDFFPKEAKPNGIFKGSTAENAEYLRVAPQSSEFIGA
The test can be described thus: EGFR degradation, Total EGFR (L858R-specific) HTRF, NCI-H1975. It is filed as cell-based. The settings on record: Table 9B; NCI-H1975 cells, 6 hours, Total EGFR HTRF; read-out: H1975 EGFR DC50. From the text:
NCI-H1975 (harboring EGFR heterozygous L858R-T790M mutations) and NCI-H3255 (harboring EGFR heterozygous L858R mutation) were purchased from ATCC and NCI, respectively. NCI-H1975+CS (harboring EGFR heterozygous L858R-T790M-C797S mutations) was generated using CRISPR technology to introduce the additional C797S mutation by Horizon Discovery. A431 (harboring EGFR wildtype) was purchased from ATCC. RPMI 1640 no-phenol red medium and fetal bovine serum (FBS) were purchased from Gibco (Grand Island, NY, USA). Cell culture flasks and 384-well microplates were acquired from VWR (Radnor, PA, USA). Phosphorylated (pY1068) EGFR and Total EGFR (using L858R-specific detection antibody and pan-EGFR antibody for EGFR mutant cell lines and EGFR wild-type cell lines, respectively) HTRF assay kits were purchased from Cisbio (Bedford, MA, USA).
Degradation of EGFR protein containing L858R mutation or wild-type was determined based on quantification of FRET signal using a Total EGFR (L858R-specific or pan-EGFR detecting) HTRF assay kit. Phospho-EGFR (pEGFR) inhibition was determined based on quantification of FRET signal using a pY1068 EGFR HTRF assay kit. In separate assay plates, test compounds were added to the 384-well plate from a top concentration of 10 μM with 11 points, half log titration in duplicates. For each assay, 12.5 uL of cells suspended in assay media (RPMI 1640 no-phenol red medium+10% FBS) at cell densities indicated for each cell line in Table 8 below were dispensed using a multi-channel pipette to 384-well low volume white HTRF microplates containing a duplicate concentration range of test compounds and DMSO controls. The plates were kept at 37° C. with 5% CO2 for 6 hours and then incubated with either phospho EGFR or Total EGFR HTRF detection antibodies according to the cell line and EGFR mutant being assayed. Cells treated in the absence of the test compound were the negative control. Positive control was set by wells containing all reagents but no cells. FRET signal was acquired on EnVision™ Multilabel Reader (PerkinElmer, Santa Clara, CA, USA). Compound concentration that achieves 50% degradation and inhibition was reported as DC50 and IC50, respectively.
For orientation: Time-resolved FRET reads energy transfer from a long-lived donor to a nearby acceptor.
Turning to `O=C1CC[C@H](Nc2ccc(N3CCC(O)(C(=O)N4CC5(C4)CN(c4ccc(-c6cc(F)c7c(c6)C(=O)N(C(C(=O)Nc6nccs6)c6ncn8c6CCC8)C7)cc4)C5)CC3)c(F)c2)C(=O)N1` (single isomer, unassigned; isomer 1) [Compound 146, 2-(6,7-dihydro-5H-pyrrolo[1,2-c]imidazol-1-yl)-2-[6-[4-[2-[1-[4-[[2,6-dioxo-3-piperidyl]amino]-2-fluoro-phenyl]-4-hydroxy-piperidine-4-carbonyl]-2,6-diazaspiro[3.3]heptan-6-yl]phenyl]-4-fluoro-1-oxo-isoindolin-2-yl]-N-thiazol-2-yl-acetamide, isomer 1], the half-maximal degradation concentration (DC50) was less than 50 nM.

For `Cn1nc(N2CCC(=O)NC2=O)c2ccc(C3CCN(CC(=O)N4CC5(C4)CN(c4ccc(-c6cc(F)c7c(c6)C(=O)N(C(C(=O)Nc6nccs6)c6ncn8c6CCC8)C7)cc4)C5)CC3F)cc21` (single isomer, unassigned; isomer 2) [Compound 125, 2-(6,7-dihydro-5H-pyrrolo[1,2-c]imidazol-1-yl)-2-[6-[4-[2-[2-[4-[3-(2,4-dioxohexahydropyrimidin-1-yl)-1-methyl-indazol-6-yl]-3-fluoro-1-piperidyl]acetyl]-2,6-diazaspiro[3.3]heptan-6-yl]phenyl]-4-fluoro-1-oxo-isoindolin-2-yl]-N-thiazol-2-yl-acetamide, isomer 2], the DC50 is less than 50 nM.

Consider `Cn1nc(N2CCC(=O)NC2=O)c2cc(F)c(C3CCN(CC(=O)N4CC5(C4)CN(c4ccc(-c6cc(F)c7c(c6)C(=O)N(C(C(=O)Nc6nccs6)c6ncn8c6CCC8)C7)cc4)C5)CC3(F)F)cc21` (single isomer, unassigned; isomer 2) [Compound 130, 2-(6,7-dihydro-5H-pyrrolo[1,2-c]imidazol-1-yl)-2-[6-[4-[2-[2-[4-[3-(2,4-dioxohexahydropyrimidin-1-yl)-5-fluoro-1-methyl-indazol-6-yl]-3,3-difluoro-1-piperidyl]acetyl]-2,6-diazaspiro[3.3]heptan-6-yl]phenyl]-4-fluoro-1-oxo-isoindolin-2-yl]-N-thiazol-2-yl-acetamide, isomer 2], for which the DC50 was less than 50 nM.

Turning to `O=C1CCC(Nc2ccc(N3CCCC(O)(CC(=O)N4CC5(C4)CN(c4ccc(-c6cc(F)c7c(c6)C(=O)N(C(C(=O)Nc6nccs6)c6ncn8c6CCC8)C7)cc4)C5)CC3)c(F)c2)C(=O)N1` (single isomer, unassigned; isomer a1) [Compound 164, 2-(6,7-dihydro-5H-pyrrolo[1,2-c]imidazol-1-yl)-2-[6-[4-[2-[2-[1-[4-[[2,6-dioxo-3-piperidyl]amino]-2-fluoro-phenyl]-4-hydroxy-azepan-4-yl]acetyl]-2,6-diazaspiro[3.3]heptan-6-yl]phenyl]-4-fluoro-1-oxo-isoindolin-2-yl]-N-thiazol-2-yl-acetamide, isomer A1], the DC50 lay in the range of 50 to 150 nM.

Turning to `O=C1CCC(Nc2ccc(N3CCCC(O)(CC(=O)N4CC5(C4)CN(c4ccc(-c6cc(F)c7c(c6)C(=O)N(C(C(=O)Nc6nccs6)c6ncn8c6CCC8)C7)cc4)C5)CC3)c(F)c2)C(=O)N1` (single isomer, unassigned; isomer a2) [Compound 165, 2-(6,7-dihydro-5H-pyrrolo[1,2-c]imidazol-1-yl)-2-[6-[4-[2-[2-[1-[4-[[2,6-dioxo-3-piperidyl]amino]-2-fluoro-phenyl]-4-hydroxy-azepan-4-yl]acetyl]-2,6-diazaspiro[3.3]heptan-6-yl]phenyl]-4-fluoro-1-oxo-isoindolin-2-yl]-N-thiazol-2-yl-acetamide, isomer A2], the DC50 was less than 50 nM.

For the origin of these results see patent US20240158418A1 (C4 Therapeutics, Inc., priority 2021, published 2024).
